The record followed here is paper PMC6085350, “Small molecule inhibitors of RAS-effector protein interactions derived using an intracellular antibody fragment” (Nature Communications, 2018).

“Also recorded” adds a separate entry of the source. Where two headings read alike, the source gives them in different places.

Experiment [1] concerns DLD-1 cells (KRAS^G13D). Kind of experiment: Cell viability (CellTiterGlo), DLD-1. Particulars: for effect on cell viability: DLD-1, 0–20 μM, up to 72 h; for IC50: Homo sapiens. It counts as cell-based, human. As to the method: Fig. 5 Abd-7 results on RAS-dependent signalling pathways and cell viability. a, b DLD-1 (a) or H358 (b) cells were serum-starved for 24 h, incubated in mono-layer with Abd-7 in a range from 2, 5, 10 and 20 μM for 3 h and stimulated with EGF 10 min. Proteins were extracted and separated by SDS-PAGE and transferred to membranes for Western analysis with anti-pAKT, anti-pERK, anti-pan AKT and anti-pan ERK. Anti-cyclophilin B antibody was the loading control. Signal was developed using standard ECL. c–e Effects of compounds Abd-2, Abd-4, Abd-5, Abd-6, and Abd-7 on the viability of human cancer cells lines was assessed for a 2-D culture of DLD-1 (mutant KRAS^G13D) cells and HT1080 cells (mutant NRAS^Q61K). The cells were treated with a dose range from 0 μM to 20 μ and incubated for 72 h when cell viability was assessed using CellTitreGlo. […] Each experiment was repeated at least three times (a, b) and four times (c, d). Where error bars are presented, they correspond to mean values ± SD of biological repeats […]
Cancer cell lines were in seeded in ViewPlates-96 microplates (PerkinElmer). DLD-1 cells were plated at 10,000 cells per well and HT1080 cells at 7500 cells per well and cultured in DMEM, high glucose, GlutaMAX media containing 10% FBS at 37 °C in 5% CO2 atmosphere. Cells were cultured overnight and the compounds (dissolved in DMSO and diluted to 0.2% DMSO) were added to the cells at concentrations ranging from 0 to 20 μM. The cells were incubated under standard culture conditions for either 24, 48 or 72 h. Cell viability was as quantitated using the CellTiterGlo Luminescent Cell Viability Assay (Promega) according to the manufacturer’s instructions to measure ATP generated by metabolically active cells. Luminescent signals were measured using an Envision 2103 Multilabel Microplate Reader (PerkinElmer). The luminescence signals obtained from the compound-treated cells were normalized against the signal for DMSO-only treated cells. The IC50 values, calculated from the 48 and 72 h CellTiterGlo data, were generated by non-linear regression using the software GraphPad Prism 7.00 for windows (GraphPad Inc).
Supplementary Figure 7: The effect of Abd compounds on the viability of cancer cells The effect of the chemical series on the viability of human cancer cells lines DLD -1 (a colorectal cancer cell line with mutant KRAS
) and HT1080 (a fibrosarcoma cell line with
). The cells were treated with a dose range from […] of either
Abd-2, Abd-4, Abd-5, Abd-6 and Abd-7 and incubated for 24 or 48 hours. Cell viability was assessed using CellTitreGlo . In each case, the data are normalized to cells treated with DMSO only. Panels a and b are DLD-1 viability and panels c and d are HT1080 viability.
The IC50 for Abd-7 at 48 & 72 […]
hours are shown in panel f. Each experiment was repeated at least four times ( a to d).
Where error bars are presented, they correspond to mean values ± SD of biological repeats.
(§1) (1 picture or pasted object on this page, not shown here)
(ATP-based viability assays read luminescence as a measure of living cells.)

Experiment [2] addresses T1, KRAS^G12V-GppNHp (Homo sapiens, UniProt P01116, G12V).
T1 construct: made in house; host or cells: E. coli (pGEX-2T; strain named only for the HRAS plasmids)
Kind of experiment: waterLOGSY NMR binding. As to the method: The waterLOGSY NMR method[35] was used to measure RAS ligand interaction. WaterLOGSY experiments were conducted at a ^1H frequency of 600 MHz using a Bruker Avance spectrometer equipped with a BBI probe. All experiments were conducted at 298 K, 3 mm diameter NMR tubes with a sample final volume of 200 µl was used in all experiments. Solutions were buffered using an H2O 10 mM PBS, 5 mM MgCl2 buffer corrected to pH 7.4. The sample preparation is exemplified as follows, the compound (10 µl of a […] solution in DMSO-d6) was added to an eppendorf before sequential addition of the H2O PBS buffer (163.6 µl), D2O (20 µl), and protein (6.4 µl, 311.8 µM). The resulting solution was spun to ensure full mixing and transferred to a 3 mm NMR tube before running the experiment. For a competition experiment using Y6-scFv or VH, the preparation was carried out in a similar manner; the compound (10 µl of a 10 mM solution in DMSO-d6) was added to an eppendorf before sequential addition of the H2O PBS buffer (146.4 µl), D2O (20 µl), protein (6.4 µl, 311.8 µM) and Y6-ScFv (17.2 µl, 116.6 µM) with a ratio of 5.5:1:1. The resulting solution was spun and transferred to a 3 mm NMR tube before the run. Negative controls (compound alone, without the protein) were prepared in a similar manner, in order to obtain an end volume of 200 μl.
Supplementary Figure 3: Abd-2 WaterLOGSY NMR with and without anti RAS-scFV Abd-2 was analyzed by waterLOGSY. […]
binding of Abd-2 to KRAS -GppNHp (upper trace, in green) but poor binding to KRAS-GDP (middle trace, in red). The proton NMR spectrum of Abd-2 in the absence of protein is […]
shown in the lower trace. Panel b, WaterLOGSY of Abd-2 with KRAS -GppNHp in the presence or absence of scFv competitor respectively top (no binding of Abd-2 to the […]
KRAS -GppNHp + scFv complex) and middle spectra (binding to KRAS -GppNHp without scFv) in purple and red respectively. The lower spectra is the proton NMR of Abd -2 in the absence of protein. Results from panel b confirm the interference of binding by the […]
as §1
Supplementary Figure 6: Abd-7 Binding in WaterLOGSy and Kd calculations in CPMG WaterLOGSY and CPMG NMR orthogonal analysis of Abd-5 (panel a, b), Abd-6 (c, d), and Abd-7 (e, f) with GST-KRASG12V-GppNHp. For each waterLOGSY profile, the proton NMR spectrum of the compound is shown together the spectra of the compound after incubation with the KRAS (the NOE transfers occurs when the compounds displace those waters upon binding to the protein). The Kd of interaction of the compounds come from fitting a binding curve (right of panels b, d, f) of a CPMG titration (shown on the left of panels b, d, f). The calculated Kd is shown for each compound.
(MW), Kd, Solubility and ligand efficiency (LE). […]

T1 sequence (P01116 1-188 isoform P01116-2 G12V): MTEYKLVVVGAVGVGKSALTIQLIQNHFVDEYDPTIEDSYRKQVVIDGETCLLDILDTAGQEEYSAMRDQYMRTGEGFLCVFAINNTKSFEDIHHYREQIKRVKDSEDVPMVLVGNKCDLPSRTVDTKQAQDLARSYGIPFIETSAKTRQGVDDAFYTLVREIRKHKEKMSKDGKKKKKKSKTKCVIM

For `O=C(NCC1COc2ccccc2O1)c1ccco1` (stereo not shown) [Abd-2], the “effect on cell viability” value in experiment [1] was “no effect on cell viability; also recorded: had not effect”. In addition, the “binding to KRAS^G12V-GppNHp (waterLOGSY)” value in experiment [2] is recorded as “preferential binding”.
Taken in the same sequence, the figures for `COc1cccc(-c2cccc3c2OC(CNC(=O)c2ccc(OCCN(C)C)cc2)CO3)n1` (stereo not shown) [Abd-5] were “have an effect on the viability” and “confirmed”.
Regarding `COc1nc(-c2cccc3c2O[C@H](CNC(=O)C2CCOCC2)CO3)ccc1Nc1cccc(CN(C)C)c1` [Abd-6], the “effect on cell viability” value in experiment [1] was “have an effect on the viability”. Besides, the “binding to KRAS^G12V-GppNHp (waterLOGSY)” value in experiment [2] is reported as “confirmed”.
By IC50 is commonly meant the concentration at which inhibition is half-maximal. Take `COc1nc(-c2cccc3c2OCCO3)ccc1Nc1ccc(CN(C)C)cc1` [Abd-7]: the IC50 in experiment [1] (DLD-1, 72 h, read-out: IC50 cell viability) was 8 µM; in experiment [1] (DLD-1, 48 h, Supplementary Fig. 7f, read-out: DLD-1 IC50 48h), 9.8 µM; in experiment [1] (DLD-1, 48 h as printed in discussion, read-out: IC50 cell viability) it was approximately 8 µM. Besides, the “binding to KRAS^G12V-GppNHp (waterLOGSY)” value in experiment [2] is recorded as “confirmed”.
